In publication PMC8145641 (Cells, 2021):
Values after ≈ are worked out from the molar mass of the structure shown.

Legend:
[1] = tested on: Hs27 (human foreskin fibroblast); experiment: Cytotoxicity assay (MTT); type: cell-based; conditions: 24 h treatment
T. gondii = conditions: values from the earlier paper; ref [25]; cited from earlier work
T. gondii RH-GFP = experiment: microbe, parasite or virus in culture; type: cell-based, Toxoplasma gondii; conditions: for IC50: Toxoplasma gondii, HS27, 96 h, read-out: IC50 (50% inhibition of T. gondii proliferation); for SI (selectivity index, CC30/IC50): ratio of CC30 (Hs27) to IC50 (T. gondii), 1b–12b and positive controls
Method: Cell and parasite culture: The Hs27 (human foreskin fibroblast) (ATCC® CRL-1634™) (ATCC, Manassas, VA, USA) were culturing in DMEM (Dulbecco’s modified Eagle’s medium-ATCC® 30-2002™, ATCC) supplemented with 10% fetal bovine serum (fetal bovine serum, ATCC® 30-2020™, ATCC), 100 I.U./mL penicillin and 100 μg/mL streptomycin (penicillin-streptomycin solution ATCC® 30-2300™, ATCC). Cells were trypsinized (Trypsin-EDTA Solution ATCC® 30-2101™, ATCC) twice a week and seeded at a density of 1 × 10^6 per T25 cell culture flask and incubated in a 37 °C and 5% CO2 to achieve a confluent monolayer. The RH strain of Toxoplasma gondii (RH-GFP ATCC® 50940™, ATCC, highly virulent, haplogroup first, expression of green fluorescent protein) was maintained as tachyzoites, in parasite culture medium, which contains DMEM medium with 3% HIFBS (heat-inactivated FBS; 1 h in 56 °C). Infected tissue culture cells were incubated in a 37 °C and 5% CO2.
After 72 h of incubation, the medium was removed and then 1 × 10^5 per well of tachyzoites of the RH strain were added to the cell monolayers, in DMEM without phenol red with 3% HIFBS. One hour later, the compounds and drugs dilutions in the DMEM without phenol red medium were added to the Hs27 cells with T. gondii. Concentration of the compounds below cytotoxic concentration (<CC30), sulfadiazine 0–10,000 μM and trimethoprim, pyrimethamine and atovaquone 0–200 μM. After a subsequent 96 h of incubation, the plates were read with covered lids, and both excitation (475 nm) and emission (509 nm) from the bottom using multimode microplate reader SpectraMax® i3. The results were expressed as mean fluorescent intensity (MFI) and transformed to the percentage of viability compared to untreated cells. Finally, the inhibitory concentrations for 50% inhibition of T. gondii proliferation (IC50) were calculated. All experiments were performed in triplicate.
Graphs and statistical analyses: Statistical analyses and graphs were performed using GraphPad Prism version 9.0.0 for macOS (GraphPad Software, San Diego, CA, USA). […] Additionally, a relationship between cytotoxicity and antiparasitic activity were calculated as the ratio of the 30% cytotoxic concentration (CC30) to the 50% antiparasitic concentration (IC50) and presented as the selectivity index (SI).

[2] = tested on: tachyzoites of the RH-GFP strain; experiment: Influence of compounds during Toxoplasma growth, Assay A (invasion); type: cell-based, Toxoplasma gondii; conditions: compound at IC50 present 3 h during infection, washed, 24 h free medium; vs non-treated
Method: (§1) Influence of Compounds during Toxoplasma Growth (Assay A and B): Hs27 cells were cultured on Lab-Tek™ 4-well Chamber Slides (Nunc, Thermo Fisher Scientific, Waltham, MA, USA) (5 × 10^4 cells/500 μL per well).
Assay A—after 48 h, the medium was removed and then 5 × 10^5/500 µL/well tachyzoites of the RH-GFP strain were added to the cell monolayers, in parasite culture medium with the selected compounds at IC50 concentration: 2b, 5b, 8b, 11b or 12b, for 3 h. Then, the cells were washed to remove extracellular parasites and parasite culture medium (without any compounds) was added for 24 h.
(§2) In both assays as the controls, Hs27 cells were infected, but not treated. After subsequent 24 h of incubation (Assay A and B), the slides were washed with sterile PBS, fixed with formaldehyde solution (252549, Sigma-Aldrich), 3.7% in PBS for 20 min and stained with DAPI for 10 min (1 mg/mL, ThermoFisher Scientific). Microscopic analysis of 100 cells in turn, comprised of counting the infected cell ratio and tachyzoites per each parasitophorous vacuoles of infected cell, was performed using a fluorescent microscope (Axio Scope.A1, Carl Zeiss, Jena, Germany) at a magnification ×1000. For image processing ZEISS ZEN Microscope Software version 3.1 was used. Three independent experiments on triplicate chamber slides using the same conditions for both assays were performed.

[3] = tested on: tachyzoites of the RH-GFP strain; experiment: Influence of compounds during Toxoplasma growth, Assay B (intracellular proliferation); type: cell-based, Toxoplasma gondii; conditions: 3 h infection without compound, washed, 24 h with compound at IC50
Method: as §1
Assay B—after 48 h, the medium was removed and then 5 × 10^5/500 µL/well tachyzoites of the RH-GFP strain were added to the cell monolayers, in parasite culture medium for 3 h.
as §2

SMILES	CC30 (cytotoxic concentration causing 30% of cells proliferation inhibition) [1] [µg/mL]	IC50 (50% inhibition of T. gondii proliferation) (T. gondii) [µg/mL]	IC50 (T. gondii RH-GFP) [µg/mL]	SI (selectivity index, CC30/IC50) (T. gondii RH-GFP)	number of tachyzoites per vacuole (Assay A) [2]	percentage of infected cells (Assay A) [2]	number of intravacuolar tachyzoites (Assay B) [3]	percentage of infected cells (Assay B) [3]	size of parasitophorous vacuole (Assay B) [3]
Cc1nc[nH]c1C(=O)NNC(=S)Nc1ccccc1F [1a]	289.60	68.83							
Cc1nc[nH]c1-c1nnc(Nc2ccccc2F)s1 [1b]	157.71		26.2 (≈ 95.1 µM)						
Cc1nc[nH]c1C(=O)NNC(=S)Nc1cccc(F)c1 [2a]	125.17	113.45							
Cc1nc[nH]c1-c1nnc(Nc2cccc(F)c2)s1 [2b]	18.96		7.04 (≈ 25.6 µM)	2.69	significant reductions	significant reductions	significant reduction	still the same	significant reduction
Cc1nc[nH]c1C(=O)NNC(=S)Nc1ccc(F)cc1 [3a]	266.20	110.31							
Cc1nc[nH]c1-c1nnc(Nc2ccc(F)cc2)s1 [3b]	26.17		11.4 (≈ 41.5 µM)	2.29					
Cc1nc[nH]c1C(=O)NNC(=S)Nc1ccccc1Cl [4a]	143.15	35.61							
Cc1nc[nH]c1-c1nnc(Nc2ccccc2Cl)s1 [4b]	24.69		12.4 (≈ 42.4 µM)	2.00					
Cc1nc[nH]c1C(=O)NNC(=S)Nc1cccc(Cl)c1 [5a]	96.78	24.15							
Cc1nc[nH]c1-c1nnc(Nc2cccc(Cl)c2)s1 [5b]	17.88		3.65 (≈ 12.5 µM)	4.90	significant reductions	significant reductions	significant reduction	still the same	significant reduction
Cc1nc[nH]c1C(=O)NNC(=S)Nc1ccc(Cl)cc1 [6a]	94.12	73.37							
Cc1nc[nH]c1-c1nnc(Nc2ccc(Cl)cc2)s1 [6b]	45.97		8.36 (≈ 28.7 µM)	5.50					
